# Experimental data published in patent publication US9006185B2, “Use of cell-permeable peptide inhibitors of the JNK signal transduction pathway for the treatment of various diseases” (Xigen Inflammation Ltd., priority 2008, dated 2015).
# Like-named read-outs stand apart in the source and are kept apart here. Square brackets hold non-standard residues; d marks the D form. Ends that are not written are not given here.
# What was measured:
# TC-3 cells [1] = test: IL-1 induced pancreatic beta-cell death, peptide treatment; type: cell-based; details: one single addition 1 μM, two days of incubation with IL-1
# Method: Inhibition of IL-1 induced pancreatic beta-cell death by the D-TAT-IB1(s) peptide was analyzed. TC-3 cells were incubated as described above for 30 minutes with one single addition of the indicated peptides (1, μM), then IL-1 (10 ng/ml) was added.
# Apoptotic cells were then counted after two days of incubation with IL-1 by use of Propidium Iodide and Hoechst 33342 nuclear staining. A minimum of 1,000 cells were counted for each experiment. Standard Error of the Means (SEM) are indicated, n=5.
# Long term inhibition of IL-1P induced cell-death by the D-TAT-IB1 peptide was also analyzed. TC-3 cells were incubated as above for 30 minutes with one single addition of the indicated peptides (1 μM), then IL-1 (10 ng/ml) was added, followed by addition of the cytokine every two days. Apoptotic cells were then counted after 15 days of incubation with IL-1 by use of propidium iodide and Hoechst 33342 nuclear staining. […] A minimum of 1.000 cells were counted for each experiment.
# JNK = details: JBDs; cited from earlier work
# TC-3 cells [2] = test: Cellular import of fluorescein-labeled TAT and TAT-IB1(s) peptides; type: cell-based
# Method: The ability of the L- and D-enantiomeric forms of TAT and TAT-IB1(s) peptides (“TAT-IB peptides”) to enter cells was evaluated. L-TAT, D-TAT, L-TAT-IB1(s), and D-TAT-IB1(s) peptides [SEQ ID NOs: 5, 6, 9 and 12, respectively] were labeled by N-terminal addition of a glycine residue conjugated to fluorescein. Labeled peptides (1 μM) were added to TC-3 cell cultures, which were maintained as described in Example 3. At predetermined times cells were washed with PBS and fixed for five minutes in ice-cold methanol-acetone (1:1) before being examined under a fluorescence microscope. Fluorescein-labeled BSA (1 μM, 12 moles/mole BSA) was used as a control.
# Little to no signal was present at 48 hours.
# Fluorescent signals from these all-D retro-inverso peptides were still very strong 1 week later, and the signal was only slightly diminished at 2 weeks post treatment.
# gerbil = details: transient global ischemia; cited from earlier work
# [3] = system: primary embryonic cultures and differentiated PC12 cells; details: after trophic withdrawal; cited from earlier work
# [4] = system: chick embryonic dorsal root ganglion, sympathetic, ciliary and motor neurons; details: cited from earlier work
# [5] = fluorescein labeled, 1 μM, TC-3 cells
compound,measurement,setting,value
TDQSRPVQPFLNLTTPRKPRYTDPPRRRQRRKKRG (H-[dT][dD][dQ][dS][dR][dP][dV][dQ][dP][dF][dL][dN][dL][dT][dT][dP][dR][dK][dP][dR][dY][dT][dD][dP][dP][dR][dR][dR][dQ][dR][dR][dK][dK][dR]G-OH) [D-TAT-IB1],IL-1 induced apoptosis,TC-3 cells [1],decreased IL-1 induced apoptosis to a similar extent as L-TAT-IB peptides
PGTGCGDTYRPKRPTTLNLFPQVPRSQDT (Description of sequence peptide IB1-long (see Table 1)),efficiency in binding JNK relative to c-Jun or ATF2,JNK,approximately 100 fold
RRRQRRKKRG (D-amino acids; Description of sequence Peptide D-TAT (see Table 1)),entry into cells (fluorescence microscopy),TC-3 cells [2],efficiently and rapidly (less than five minutes) entered cells
same,stability inside the cells,TC-3 cells [2],extremely stable inside the cells
N#CC(c1ccnc(NCCc2cccnc2)n1)c1nc2ccccc2s1 (centres unmarked) [AS601245],delayed loss of hippocampal CA1 neurons,gerbil,significant protection against the delayed loss of hippocampal CA1 neurons
CCSCc1ccc2c(c1)c1c3c(c4c5cc(CSCC)ccc5n5c4c1n2[C@H]1C[C@](O)(C(=O)OC)[C@]5(C)O1)CNC3=O [CEP-1347],neuronal survival,[3],promotes neuronal survival at dosages that inhibit activation of the c-Jun amino-terminal kinases
same,long term survival of cultured neurons,[4],promote long term-survival
GRKKRRQRRRPPRPKRPTTLNLFPQVPRSQD [L-TAT-IB1(s)],entry into cells (fluorescence microscopy),TC-3 cells [2]; [5],efficiently and rapidly (less than five minutes) entered cells
IPSPSVEEPHKHRPTTLRLTTLGAQDS (Description of sequence Peptide IB2-long (see Table 1)),efficiency in binding JNK relative to c-Jun or ATF2,JNK,approximately 100 fold
GRKKRRQRRR (Description of sequence Peptide L-TAT (see Table 1)),entry into cells (fluorescence microscopy),TC-3 cells [2]; [5],efficiently and rapidly (less than five minutes) entered cells
"Fluorescein-labeled BSA: fluorescein labeled bovine serum albumin, 12 moles fluorescein/mole BSA, control [reference compound]",entry into cells (fluorescence microscopy),TC-3 cells [2],did not enter the cells
